Measured values from PubChem BioAssay (NCI).
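Compound exposure: 48 hours, 5 concentrations, 96-well plates. Abbreviation: GI50, concentration required for 50% inhibition of growth. The concentration for full growth arrest is given as TGI.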

Key:
Test in all cases: NCI tumour cell line growth inhibition, 48 h; in the data active = GI50 below about 0.43 µM; inactive = the rest
[1] = system: UACC-257 melanoma
[2] = system: ACHN renal
[3] = system: TK-10 renal
[4] = system: OVCAR-3 ovarian
[5] = system: SF-539 CNS
[6] = system: SK-MEL-28 melanoma
[7] = system: UACC-62 melanoma
[8] = system: NCI-H226 lung
[9] = system: A549 NSCLC
[10] = system: NCI-H522 lung
[11] = system: SK-OV-3 ovarian
[12] = system: HT29 colon
[13] = system: MDA-MB-231 breast
[14] = system: HOP-92 NSCLC
[15] = system: MDA-MB-435
[16] = system: BT-549 breast
[17] = system: SK-MEL-5 melanoma
[18] = system: SW-620 colon
[19] = system: T-47D breast
[20] = system: HCT-116 colon
[21] = system: M14 melanoma
[22] = system: MALME-3M melanoma
[23] = system: SK-MEL-2 melanoma
[24] = system: MCF7 breast
[25] = system: CCRF-CEM leukemia
[26] = system: HOP-62 NSCLC
[27] = system: SNB-75 CNS
[28] = system: OVCAR-5 ovarian
[29] = system: 786-0 renal
[30] = system: UO-31 renal
[31] = system: SF-295 CNS
[32] = system: HL-60(TB) leukemia
[33] = system: OVCAR-4 ovarian
[34] = system: LOX IMVI melanoma
[35] = system: U251 CNS
[36] = system: K-562 leukemia
[37] = system: SF-268 CNS
[38] = system: DU-145 prostate
[39] = system: RXF 393 renal
[40] = system: COLO 205 colon
[41] = system: KM12 colon
[42] = system: A498 renal
[43] = system: SNB-19 CNS
[44] = system: NCI-H23 lung
[45] = system: PC-3 prostate
[46] = system: RPMI-8226 leukemia
[47] = system: EKVX NSCLC
[48] = system: IGROV1 ovarian
[49] = system: NCI/ADR-RES ovarian
[50] = system: SR leukemia
[51] = system: CAKI-1 renal
[52] = system: HCT-15 colon
[53] = system: OVCAR-8 ovarian
[54] = system: NCI-H460 lung
[55] = system: MOLT-4 leukemia
[56] = system: SN12C renal
[57] = system: HCC-2998 colon
[58] = system: HS 578T breast

O=[N+]([O-])c1ccc2scc3c4ccccc4nc-3c2c1
3.5 µM: TGI [45]
5.26 µM: TGI [32]
2.72 µM: TGI [1]
2.32 µM: TGI [3]
3.34 µM: TGI [7]
6.08 µM: TGI [8]
3.14 µM: TGI [6]
2.86 µM: TGI [37]
2.94 µM: TGI [20]
5.05 µM: TGI [44]
3.24 µM: TGI [26]
3.23 µM: TGI [11]
2.51 µM: TGI [30]
3.28 µM: TGI [14]
3.32 µM: TGI [19]
2.77 µM: TGI [38]
inactive: GI50 [1] 1.32 µM | GI50 [2] 1.5 µM | GI50 [3] 1.08 µM | GI50 [5] 1.8 µM | GI50 [6] 1.72 µM | GI50 [7] 1.72 µM | GI50 [8] 2.22 µM | GI50 [9] 1.74 µM | GI50 [11] 1.81 µM | GI50 [12] 1.38 µM | GI50 [13] 1.65 µM | GI50 [14] 1.66 µM | GI50 [15] 1.54 µM | GI50 [16] 1.73 µM | GI50 [17] 1.62 µM | GI50 [18] 0.462 µM | GI50 [19] 0.784 µM | GI50 [20] 1.33 µM | GI50 [21] 1.85 µM | GI50 [22] 1.15 µM | GI50 [23] 1.66 µM | GI50 [24] 1.29 µM | GI50 [25] 0.611 µM | GI50 [26] 1.78 µM | GI50 [27] 1.37 µM | GI50 [28] 1.91 µM | GI50 [29] 1.84 µM | GI50 [30] 1.16 µM | GI50 [31] 1.78 µM | GI50 [32] 1.17 µM | GI50 [33] 1.67 µM | GI50 [34] 1.36 µM | GI50 [35] 0.6 µM | GI50 [37] 1.48 µM | GI50 [38] 1.46 µM | GI50 [39] 1.43 µM | GI50 [40] 1.79 µM | GI50 [41] 1.59 µM | GI50 [42] 0.509 µM | GI50 [43] 1.96 µM | GI50 [44] 1.9 µM | GI50 [45] 1.73 µM | GI50 [46] 2.12 µM
3.61 µM: TGI [24]
3.29 µM: TGI [29]
2.95 µM: TGI [2]
3.75 µM: TGI [28]
2.66 µM: TGI [27]
2 µM: TGI [35]
3.35 µM: TGI [5]
3.85 µM: TGI [9]
active: GI50 [4] 0.415 µM | GI50 [10] 0.342 µM | GI50 [36] 0.402 µM
2.07 µM: TGI [42]
3.87 µM: TGI [31]
3.94 µM: TGI [15]
2.96 µM: TGI [41]
2.78 µM: TGI [39]
3.22 µM: TGI [13] | TGI [33]
1.7 µM: TGI [18]
1.54 µM: TGI [10]
4.08 µM: TGI [43]
3.58 µM: TGI [21]
3.52 µM: TGI [40]
3.31 µM: TGI [23]
1.63 µM: TGI [4]
3.03 µM: TGI [12] | TGI [17]
> 100 µM: TGI [34] | TGI [36]
2.64 µM: TGI [22]
6.18 µM: TGI [46]
5.16 µM: TGI [25]
3.18 µM: TGI [16]

CC[C@]1(Cc2ccc(OC)c(OC)c2)[C@@H]2C[C@@H](C(=O)OC)ON2O[C@H](OC2CCCC2(c2ccccc2)c2ccccc2)[C@@H]1OC(C)=O (stereo not given in full)
> 100 µM: TGI [1] | TGI [2] | TGI [3] | TGI [4] | TGI [6] | TGI [7] | TGI [8] | TGI [9] | TGI [11] | TGI [12] | TGI [47] | TGI [48] | TGI [13] | TGI [49] | TGI [15] | TGI [50] | TGI [51] | TGI [16] | TGI [17] | TGI [52] | TGI [18] | TGI [19] | TGI [20] | TGI [21] | TGI [23] | TGI [24] | TGI [25] | TGI [53] | TGI [26] | TGI [54] | TGI [27] | TGI [28] | TGI [29] | TGI [30] | TGI [31] | TGI [34] | TGI [35] | TGI [55] | TGI [36] | TGI [37] | TGI [38] | TGI [39] | TGI [40] | TGI [41] | TGI [43] | TGI [44] | TGI [56]

c1cc2sc1CSCCSCCSC2
> 100 µM: TGI [1] | TGI [3] | TGI [4] | TGI [5] | TGI [6] | TGI [7] | TGI [9] | TGI [10] | TGI [11] | TGI [12] | TGI [47] | TGI [48] | TGI [13] | TGI [49] | TGI [14] | TGI [15] | TGI [50] | TGI [16] | TGI [17] | TGI [52] | TGI [18] | TGI [19] | TGI [20] | TGI [21] | TGI [24] | TGI [25] | TGI [53] | TGI [26] | TGI [54] | TGI [27] | TGI [28] | TGI [29] | TGI [30] | TGI [31] | TGI [32] | TGI [33] | TGI [34] | TGI [35] | TGI [55] | TGI [36] | TGI [37] | TGI [38] | TGI [40] | TGI [41] | TGI [43] | TGI [57] | TGI [44] | TGI [45] | TGI [56]

COc1ccc(-c2c(C#N)c(N)nc3c2COc2ccc(F)cc2-3)cc1OC
> 100 µM: TGI [6] | TGI [10] | TGI [14] | TGI [50] | TGI [18] | TGI [23] | TGI [24] | TGI [54] | TGI [55] | TGI [36] | TGI [40] | TGI [41] | TGI [45] | TGI [46]
38.5 µM: TGI [58]
10.9 µM: TGI [31]
52.9 µM: TGI [52]
98.9 µM: TGI [21]
37.4 µM: TGI [15]
30.5 µM: TGI [44]
23.9 µM: TGI [38]
22.7 µM: TGI [35]
5.44 µM: TGI [2]
42.2 µM: TGI [49]
36.8 µM: TGI [11]
9.63 µM: TGI [13]
6.41 µM: TGI [4]
20.9 µM: TGI [56]
9.84 µM: TGI [34]
51.6 µM: TGI [39]
23 µM: TGI [7]
13.2 µM: TGI [53]
56.4 µM: TGI [37]
8.15 µM: TGI [51]
37.5 µM: TGI [17]
37.3 µM: TGI [20]
11 µM: TGI [5]
24.8 µM: TGI [47]
57.9 µM: TGI [30]
46.2 µM: TGI [29]
20 µM: TGI [8]
39 µM: TGI [26]
23.7 µM: TGI [43]
63.7 µM: TGI [33]
24 µM: TGI [3]
33.6 µM: TGI [28]
60.5 µM: TGI [1]
14.2 µM: TGI [9]
inactive: GI50 [1] 18.9 µM | GI50 [2] 1.4 µM | GI50 [3] 3.35 µM | GI50 [4] 2.21 µM | GI50 [5] 3.38 µM | GI50 [6] 29.9 µM | GI50 [7] 7.99 µM | GI50 [8] 4.54 µM | GI50 [9] 3.81 µM | GI50 [10] 18.9 µM | GI50 [11] 8.44 µM | GI50 [47] 4.91 µM | GI50 [48] 8.88 µM | GI50 [13] 2.53 µM | GI50 [49] 17.4 µM | GI50 [14] 18 µM | GI50 [58] 7.55 µM | GI50 [15] 10.7 µM | GI50 [50] 2.15 µM | GI50 [51] 2.18 µM | GI50 [16] 10.1 µM | GI50 [17] 12 µM | GI50 [52] 8.29 µM | GI50 [18] 9.21 µM | GI50 [20] 6.66 µM | GI50 [21] 22 µM | GI50 [23] 34.5 µM | GI50 [24] 17.6 µM | GI50 [53] 3.62 µM | GI50 [26] 14.7 µM | GI50 [54] 9.03 µM | GI50 [28] 17.2 µM | GI50 [29] 16.9 µM | GI50 [30] 17.3 µM | GI50 [31] 3.27 µM | GI50 [32] 23.2 µM | GI50 [33] 6.82 µM | GI50 [34] 2.29 µM | GI50 [35] 10.3 µM | GI50 [55] > 100 µM | GI50 [36] 53.6 µM | GI50 [37] 15.8 µM | GI50 [38] 8.14 µM | GI50 [39] 20.3 µM | GI50 [40] 5.79 µM | GI50 [41] 5.83 µM | GI50 [43] 4.37 µM | GI50 [44] 14.1 µM | GI50 [45] 17.1 µM | GI50 [56] 6.22 µM | GI50 [46] 6.61 µM
92.4 µM: TGI [32]
26.5 µM: TGI [16]
65.1 µM: TGI [48]
